Results taken from article PMC5484120 (Marine Drugs, 2017).

Biological target: T1, rα1β1εδ nAChR (UniProt P20782+P25108+P25109+P25110)
T1 construct: expressed in transfected cells; host or cells: Xenopus laevis oocytes injected with cRNA
Experiment: cell-based
Set-up: species or system rodent: rat (α1, β1, and δ), mouse (ε)

T1 sequence (P20782 21-493): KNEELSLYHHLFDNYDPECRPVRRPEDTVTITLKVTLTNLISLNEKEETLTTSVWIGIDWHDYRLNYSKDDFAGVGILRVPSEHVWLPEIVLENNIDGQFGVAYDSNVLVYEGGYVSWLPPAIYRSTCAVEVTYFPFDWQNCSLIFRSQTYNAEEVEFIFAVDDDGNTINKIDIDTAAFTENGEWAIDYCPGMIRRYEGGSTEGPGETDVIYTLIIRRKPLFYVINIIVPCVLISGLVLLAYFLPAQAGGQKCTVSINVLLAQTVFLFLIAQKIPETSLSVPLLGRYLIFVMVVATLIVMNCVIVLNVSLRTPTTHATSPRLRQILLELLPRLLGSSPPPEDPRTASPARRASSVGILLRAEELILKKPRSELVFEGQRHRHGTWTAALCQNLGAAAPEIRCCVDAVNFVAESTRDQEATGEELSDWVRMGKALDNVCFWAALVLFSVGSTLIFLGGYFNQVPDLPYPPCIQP
T1 sequence (P25108 21-457): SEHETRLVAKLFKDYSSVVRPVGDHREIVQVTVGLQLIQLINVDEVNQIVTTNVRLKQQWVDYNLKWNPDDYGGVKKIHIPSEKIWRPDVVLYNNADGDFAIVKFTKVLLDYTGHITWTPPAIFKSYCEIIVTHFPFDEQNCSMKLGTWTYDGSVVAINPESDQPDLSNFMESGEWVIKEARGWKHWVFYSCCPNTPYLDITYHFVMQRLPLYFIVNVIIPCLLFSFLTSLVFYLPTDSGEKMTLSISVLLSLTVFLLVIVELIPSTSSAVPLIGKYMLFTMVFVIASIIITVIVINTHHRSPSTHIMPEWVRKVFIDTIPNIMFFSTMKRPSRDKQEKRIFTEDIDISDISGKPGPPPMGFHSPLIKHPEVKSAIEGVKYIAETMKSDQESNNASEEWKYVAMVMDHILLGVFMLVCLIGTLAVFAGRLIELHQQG
T1 sequence (P25109 24-501): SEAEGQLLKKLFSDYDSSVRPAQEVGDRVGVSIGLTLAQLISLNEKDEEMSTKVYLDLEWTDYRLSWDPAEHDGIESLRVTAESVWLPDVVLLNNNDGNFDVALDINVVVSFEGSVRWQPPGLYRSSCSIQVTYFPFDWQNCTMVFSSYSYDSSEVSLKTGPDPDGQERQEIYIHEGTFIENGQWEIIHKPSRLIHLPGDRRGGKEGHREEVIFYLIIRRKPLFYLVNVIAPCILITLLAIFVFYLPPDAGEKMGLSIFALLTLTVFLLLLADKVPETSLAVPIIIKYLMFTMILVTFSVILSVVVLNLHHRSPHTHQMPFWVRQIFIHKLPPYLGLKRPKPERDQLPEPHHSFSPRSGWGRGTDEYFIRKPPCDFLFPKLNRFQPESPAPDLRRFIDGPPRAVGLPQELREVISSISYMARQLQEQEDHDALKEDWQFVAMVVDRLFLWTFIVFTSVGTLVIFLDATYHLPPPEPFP
T1 sequence (P25110 22-517): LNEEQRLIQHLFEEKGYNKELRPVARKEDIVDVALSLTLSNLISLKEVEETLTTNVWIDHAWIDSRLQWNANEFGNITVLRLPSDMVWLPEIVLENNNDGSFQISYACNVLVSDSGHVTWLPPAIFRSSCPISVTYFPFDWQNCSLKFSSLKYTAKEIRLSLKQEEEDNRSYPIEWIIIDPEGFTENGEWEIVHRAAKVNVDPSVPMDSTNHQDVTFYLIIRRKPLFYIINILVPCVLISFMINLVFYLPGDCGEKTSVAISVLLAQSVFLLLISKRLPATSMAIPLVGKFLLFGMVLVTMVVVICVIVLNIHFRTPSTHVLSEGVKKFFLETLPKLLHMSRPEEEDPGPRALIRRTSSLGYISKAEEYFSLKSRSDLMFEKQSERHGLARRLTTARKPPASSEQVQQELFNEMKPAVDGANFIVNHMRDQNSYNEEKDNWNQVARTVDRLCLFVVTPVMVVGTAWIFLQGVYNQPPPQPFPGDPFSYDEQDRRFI

CSCC[C@H](NC(=O)[C@H](CC(C)C)NC(=O)[C@H](C)N)C(=O)N[C@@H](CO)C(=O)N[C@H](C(=O)NCC(=O)N[C@H](C(=O)N[C@@H](CC(N)=O)C(=O)N[C@@H](Cc1ccc(O)cc1)C(=O)N[C@@H](CCCNC(=N)N)C(=O)N[C@@H](CC(C)C)C(=O)N[C@@H](CC(C)C)C(=O)N[C@@H](CCCCN)C(=O)N[C@H](C(=O)N[C@@H](CSCC(N)=O)C(=O)N[C@@H](CCCNC(=N)N)C(=O)NCC(=O)N[C@@H](CO)C(=O)NCC(=O)N[C@@H](CCCNC(=N)N)C(=O)N[C@@H](Cc1ccc(O)cc1)C(=O)N[C@@H](CSCC(N)=O)C(=O)N[C@@H](CCCNC(=N)N)C(=O)N[C@@H](CO)C(=O)N1CCC[C@H]1C(=O)N[C@@H](Cc1ccc(O)cc1)C(=O)O)[C@@H](C)O)[C@@H](C)O)[C@@H](C)O [GeXXVIIA-L-Nter]
IC50: 2190 ± 240 nM | IC50 relative to GeXXVIIA-L, rα1β1εδ nAChR: about three-fold higher than GeXXVIIA-L
